Literature values in patent US20260116844A1, “LIPID NANOPARTICLE FORMULATION COMPRISING IONIZED LIPIDS WITH BRANCHED STRUCTURE, AND USE THEREOF” (SurgiNex Co., Ltd., priority 2022, published 2026).

System: blood coagulation factor FVII

## CCCCC/C=C\C/C=C\CCCCCCCCC(CCCCCCCC/C=C\C/C=C\CCCCC)OC(=O)CCCN(C)C [Dlin-MC3-DMA]
Mouse FVII model, siRNA delivery
  ED50: 5 µg/kg
mouse, in vivo
  times more effective than existing ionized lipids: approximately 1000 times
